Results reported in US20060079453A1, “Hla binding peptides and their uses” (priority 2002, published 2006).
Read-outs that look alike come from different tables or passages of the source. No end group written: not given here.

Columns and labels:
[1] = target: HLA-A*2902 (Homo sapiens, UniProt P04439, A270S/D101N/D185E/E176V/E277Q/E87Q/F33T/G231S/H175R/I121M/I218V/I322F/K168Q/L300P/L318F/M331R/P208A/P217A/Q86L/T323A/T345S/V100A/V358M); test: MHC molecular binding / Capture assay, IC50: A*2902
[2] = target: HLA-A*3002 (Homo sapiens, UniProt P04439, D101N/D140H/D185E/E176R/F33S/G80R/H175R/K168Q/Q94H/R138E/R41S/V100E); test: biochemical; assay type: binding
[3] = target: HLA-A*0203 (Homo sapiens, UniProt P04439, A173T/D140Y/D185E/D98H/E277Q/G131W/G231S/I119V/I121R/I166T/I218V/L180W/L300P/L318F/N151K/N90K/P208A/P217A/Q86G/Q94H/R138H/R169H/T345S); test: biochemical; assay type: binding
[4] = target: HLA-A*0206 (Homo sapiens, UniProt P04439, D140Y/D185E/D98H/E176V/E277Q/F33Y/G131W/G231S/I119V/I121R/I166T/I218V/L300P/L318F/N151K/N90K/P208A/P217A/Q86G/Q94H/R138H/R169H/T345S); test: biochemical; assay type: binding
[5] = target: HLA-A*6802 (Homo sapiens, UniProt P04439, A269V/D140Y/D185E/E176V/E277Q/E87N/F33Y/G231S/I121R/I166T/I218V/L180W/L300P/L318F/N151K/P208A/P217A/Q86R/R138H/R169H/S129P/T345S/V36M); test: biochemical; assay type: binding
[6] = target: HLA-A*0202 (Homo sapiens, UniProt P04439, D140Y/D185E/D98H/E176V/E277Q/G131W/G231S/I119L/I121R/I166T/I218V/L180W/L300P/L318F/N151K/N90K/P208A/P217A/Q67R/Q86G/Q94H/R138H/R169H/T345S); test: biochemical; assay type: binding
[7] = target: HLA-DR DRB1*0101 (DR1) (Homo sapiens, UniProt P01903+P01911, A100R/D57E/F55L/F60I/F76Y/I96L/L162R/M171V/P40L/Q125E/R42F/V115G/Y59C); test: biochemical; assay type: binding; settings: DRB1 *0101
[8] = target: HLA-DR DRB1*0301 (DR3) (Homo sapiens, UniProt P01903+P01911, A100K/A102G/A103R/A169T/F55Y/I96L/K41T/L162R/M171V/P40S/Q125H/Q178H/Q39Y/R42S/S66N/T106N/T262R/W38E/Y61H); test: biochemical; assay type: binding
[9] = target: HLA-DR DRB1*0401 (DR4) (Homo sapiens, UniProt P01903+P01911, A100K/A169T/F76Y/I96L/K127E/L162R/M171V/N62H/P40V/Q125Y/R42H/S133A/S149N/S66Y/V115G/V209L/W38E); test: biochemical; assay type: binding; settings: DRB1 *0401
[10] = target: HLA-DR DRB1*0405 (DR4) (Homo sapiens, UniProt P01903+P01911, A100R/A169T/D86S/F76Y/I96L/K127E/L162R/M171V/N62H/P40V/Q125Y/R42H/S133A/S149N/S66Y/V115G/V209L/W38E); test: biochemical; assay type: binding; settings: DRB1 *0405
[11] = target: HLA-DR DRB1*0701 (DR7) (Homo sapiens, UniProt P01903+P01911, A100R/A102G/A103Q/D57E/D86V/E43K/F76Y/K127E/L162R/M171V/P40G/Q125H/Q99D/R33Q/R42Y/R54Q/S133A/S66F/T210M/V115G/Y107V/Y59L/Y89S); test: biochemical; assay type: binding; settings: DRB1 *0701
[12] = target: HLA-DR DRB1*0802 (DR8) (Homo sapiens, UniProt P01903+P01911, A100R/A103L/A169T/F76Y/H45Y/I96F/K41T/L162R/M171V/P40S/Q125H/Q178H/Q39Y/Q99D/R218S/R42G/S66Y/V115G/W38E); test: biochemical; assay type: binding
[13] = target: HLA-DR DRB1*0901 (DR9) (Homo sapiens, UniProt P01903+P01911, A100R/A103E/D57H/D86V/F55Y/F60I/F76Y/I96F/K127E/L162R/M171V/P40D/Q125H/Q99R/R33Q/R42F/S133A/S66N/T210M/V115G/W38K/Y107V/Y59G/Y89S); test: biochemical; assay type: binding; settings: DRB1 *0901
[14] = target: HLA-DR DRB1*1101 (DR11) (Homo sapiens, UniProt P01903+P01911, A100R/A169T/A87E/I96F/K41T/L162R/M171V/P40S/Q125H/Q178H/Q39Y/Q99D/R42S/S66Y/T262R/V115G/W38E); test: biochemical; assay type: binding; settings: DRB1 *1101
[15] = target: HLA-DR DRB1*1302 (DR13) (Homo sapiens, UniProt P01903+P01911, A100E/A169T/K41T/L162R/M171V/P40S/Q125H/Q178H/Q39Y/Q99D/R42S/S66N/T262R/V115G/W38E/Y61H); test: biochemical; assay type: binding; settings: DRBI *1302
[16] = target: HLA-DR DRB1*1501 (DR15) (Homo sapiens, UniProt P01903+P01911); test: biochemical; assay type: binding; settings: DRBI *1501
[17] = target: HLA-DR DRB3*0101 (DR52) (Homo sapiens, UniProt P01903+P79483); test: biochemical; assay type: binding
[18] = target: HLA-DR DRB4*0101 (DR53) (Homo sapiens, UniProt P01903+P13762, G164S); test: biochemical; assay type: binding; settings: DRB4 *0101
[19] = target: HLA-DR DRB5*0101 (DR51) (Homo sapiens, UniProt P01903+Q30154); test: biochemical; assay type: binding; settings: DRB5 *0101
[20] = Binding affinity to A*2902 (expressed as an IC50)
[21] = Binding affinity to A*3002 (expressed as an IC50)
[22] = A*0202 binding affinity (expressed as an IC50)
[23] = A*0203 binding affinity (expressed as an IC50)
[24] = A*0206 binding affinity (expressed as an IC50)
[25] = A*6802 binding affinity (expressed as an IC50)

HLA-DR DRB1*1101 (DR11), sequence (P01903 26-254 limits assumed, other chains not shown): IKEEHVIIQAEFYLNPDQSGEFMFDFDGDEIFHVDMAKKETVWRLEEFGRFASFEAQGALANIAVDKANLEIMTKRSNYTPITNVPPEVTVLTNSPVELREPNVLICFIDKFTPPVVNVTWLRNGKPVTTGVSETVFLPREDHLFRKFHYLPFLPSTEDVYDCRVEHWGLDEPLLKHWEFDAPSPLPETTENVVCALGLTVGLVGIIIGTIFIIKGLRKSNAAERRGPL
HLA-DR DRB1*0301 (DR3), sequence (P01903 26-254 limits assumed, other chains not shown): as above
HLA-DR DRB1*1302 (DR13), sequence (P01903 26-254 limits assumed, other chains not shown): as above

KTYGGPGPGY
IC50 [1, 20]: 0.228 µM
IC50 [2, 21]: 0.0017 µM

KVGSLQYV
IC50 [3]: 0.703 µM
IC50 [4]: 1.9 µM
IC50 [5]: 17.5 µM

KVYGLSAFV
IC50 [6, 22]: 0.0018 µM
IC50 [3, 23]: 0.011 µM
IC50 [4, 24]: 0.069 µM
IC50 [5, 25]: 0.11 µM

KYQAVTTTL
IC50 ([1]; A*2902 binding affinity (IC50)): > 156 µM

LFVVYRDSF
IC50 [1]: 0.919 µM
IC50 [2]: 0.018 µM

LLFGWCFKLV
IC50 [6]: 0.084 µM

LSEYYDXD1Y
IC50 ([2]; read-out: Binding affinity to A*3002 (expressed as an IC50)): 0.489 µM

LTDVSIACVY
IC50 [1]: 0.764 µM
IC50 [2]: 0.072 µM

MTGNPAIPV
IC50 [3, 23]: 0.01 µM

MTGNPPIPV
IC50 [6, 22]: 0.011 µM
IC50 [3, 23]: 0.00074 µM
IC50 [4, 24]: 0.079 µM
IC50 [5, 25]: 0.0078 µM

MTHNPPIPV
IC50 [3, 23]: 0.0014 µM
IC50 [4, 24]: 0.158 µM
IC50 [5, 25]: 0.0014 µM

PVDPNLEPY
IC50 [2]: 7.12 µM

QAAESNERY
IC50 [1, 20]: 24.3 µM
IC50 [2, 21]: 3.01 µM

QLGPGPGLMEV
IC50 [6, 22]: 0.0094 µM
IC50 [3, 23]: 0.029 µM
IC50 [4, 24]: 0.481 µM
IC50 [5, 25]: 0.648 µM

SSFFMNRFY
IC50 [1, 20]: 0.036 µM
IC50 [2, 21]: 0.0075 µM

TYGWCFKL
IC50 [1]: 25.7 µM
IC50 [2]: > 8.04 µM

WQNYTPGPGV
IC50 [3, 23]: 0.23 µM
IC50 [4, 24]: 0.223 µM
IC50 [5, 25]: 12 µM

YLPGPGIRYPL
IC50 [6]: 0.02 µM
IC50 [3]: 1.58 µM
IC50 [4, 24]: 3.5 µM

YLVCGERGFFYTPKT
IC50 [7]: 11.1 µM
IC50 [8]: 37.2 µM
IC50 [9]: 1.44 µM
IC50 [10]: 0.73 µM
IC50 [11]: 64.6 µM
IC50 [12]: > 54.4 µM
IC50 [13]: 1.52 µM
IC50 [14]: > 10.5 µM
IC50 [15]: 9.27 µM
IC50 [16]: 10.7 µM
IC50 [17]: 92.8 µM
IC50 [18]: 34.5 µM
IC50 [19]: 95.2 µM

YLVCGERGFLYTPKT
IC50 [7]: 0.155 µM
IC50 [8]: 2.03 µM
IC50 [9]: > 20.5 µM
IC50 [10]: > 30.1 µM
IC50 [11]: 12.8 µM
IC50 [12]: > 54.4 µM
IC50 [13]: 0.124 µM
IC50 [14]: > 1110 µM
IC50 [15]: 2.12 µM
IC50 [16]: > 25.6 µM
IC50 [17]: > 95.2 µM
IC50 [18]: 33.1 µM
IC50 [19]: 0.971 µM

YYNNFNNNY
IC50 [1, 20]: 0.019 µM
IC50 [2, 21]: 0.034 µM
